{"source": "patent US20250223259A1", "about": "“PROTEASE INHIBITORS FOR TREATING OR PREVENTING CORONAVIRUS INFECTION” (Merck Sharp & Dohme LLC, priority 2022, published 2025)", "data": [{"target": "SARS2 coronavirus 3CL protease (Severe acute respiratory syndrome coronavirus 2 (2019-nCoV) (SARS-CoV-2), UniProt P0DTD1)", "assay": "SARS2 Coronavirus 3CL Protease Assay (FRET)", "type": "biochemical", "conditions": "SARS2 3CLPro FRET assay; 5 nM enzyme, 30 min pre-incubation with compound, 15 uM peptide substrate, 4 h room temperature", "units": {"IC50": "nM"}, "description": "The enzymatic activity of SARS2 coronavirus 3CL protease was determined in a FRET (fluorescence resonance energy transfer)-based assay measuring the cleavage of a peptide substrate by recombinantly expressed and purified enzyme. Cleavage of the peptide SEQ ID NO:1 (CPC Scientific) by SARS2 3CL protease was measured in reaction buffer (50 mM Hepes pH 7.5, 0.01% Triton X-100, 0.01% BSA, 2 mM DTT). SARS2 3CL protease (5 nM final concentration) was pre-incubated with compound for 30 minutes before reaction initiation with peptide substrate (15 uM final concentration). Room temperature reactions (4 h) were quenched by addition of a high dose of inhibitor and read on an appropriate plate reader (excitation wavelength=495 nm, emission wavelength=520 nm). Data were analyzed by a standard 4 parameter fit to determine IC50 values.", "values": [{"smiles": "CNC(=O)C(=O)[C@H](CCC(C)(F)F)NC(=O)[C@@H]1C[C@H](C(F)(F)F)CCN1C(=O)[C@@H](NC(=O)OC)C(C)(C)C", "note": "[Example 22, Methyl ((S)-1-((2S,4R)-2-(((S)-6,6-difluoro-1-(methylamino)-1,2-dioxoheptan-3-yl)carbamoyl)-4-(trifluoromethyl)piperidin-1-yl)-3,3-dimethyl-1-oxobutan-2-yl)carbamate]", "IC50": 10}, {"smiles": "COC(=O)N[C@H](C(=O)N1CC(C2COC2)C[C@H]1C(=O)N[C@@H](CCC(C)(F)F)C(=O)C(=O)NC1CC1)C(C)(C)C", "note": "(single isomer, unassigned) [Example 57, Methyl ((S)-1-((2S, 4(R or S))-2-(((S)-1-(cyclopropylamino)-6,6-difluoro-1,2-dioxoheptan-3-yl)carbamoyl)-4-(oxetan-3-yl)pyrrolidin-1-yl)-3,3-dimethyl-1-oxobutan-2-yl)carbamate]", "IC50": 305}, {"smiles": "CNC(=O)C(=O)[C@H](CCC(C)(F)F)NC(=O)[C@@H]1[C@H]2CCC[C@H]2CN1C(=O)C(NC(=O)OC)C1(C(F)(F)F)CC1", "note": "(stereo partly drawn) [Example 88, methyl (2-((1S,3aR,6aS)-1-(((S)-6,6-difluoro-1-(methylamino)-1,2-dioxoheptan-3-yl)carbamoyl)hexahydrocyclopenta[c]pyrrol-2(1H)-yl)-2-oxo-1-(1-(trifluoromethyl)cyclopropy 1)ethyl)carbamate]", "IC50": 21}, {"smiles": "COC(=O)N[C@H](C(=O)N1CC(C2CCCC2)C[C@H]1C(=O)N[C@@H](CCC(C)(F)F)C(=O)C(=O)NC1CC1)C(C)(C)C", "note": "(single isomer, unassigned) [Example 3, Methyl ((S)-1-((2S,4(R or S))-4-cyclopentyl-2-(((S)-1-(cyclopropylamino)-6,6-difluoro-1,2-dioxoheptan-3-yl)carbamoyl)pyrrolidin-1-yl)-3,3-dimethyl-1-oxobutan-2-yl)carbamate]", "IC50": 58}, {"smiles": "COC(=O)N[C@H](C(=O)N1CC2CCC2C1C(=O)N[C@@H](CCC(C)(F)F)C(=O)C(=O)NC1CC1)C(C)(C)C", "note": "(single isomer, unassigned) [Example 43, Methyl ((S)-1-((1(R or S), 2(R or S),5(R or S))-(2-(((S)-1-(cyclopropylamino)-6,6-difluoro-1,2-dioxoheptan-3-yl)carbamoyl)-3-azabicyclo[3.2.0]heptan-3-yl)-3,3-dimethyl-1-oxobutan-2-yl)carbamate]", "IC50": 22}, {"smiles": "CNC(=O)C(=O)[C@H](CCC(C)(F)F)NC(=O)[C@@H]1[C@@H](C(F)(F)F)CCN1C(=O)[C@@H](NC(=O)OC)C(C)(C)C", "note": "[Example 81, methyl ((S)-1-((2S,3S)-2-(((S)-6,6-difluoro-1-(methylamino)-1,2-dioxoheptan-3-yl)carbamoyl)-3-(trifluoromethyl)pyrrolidin-1-yl)-3,3-dimethyl-1-oxobutan-2-yl)carbamate]", "IC50": 44}, {"smiles": "CC(C)OC(=O)N[C@H](C(=O)N1CC2(CCCCC2)C[C@H]1C(=O)N[C@@H](CCC(C)(F)F)C(=O)C(=O)NC1CC1)C(C)(C)C", "note": "[Example 4, Isopropyl ((S)-1-((S)-3-(((S)-1-(cyclopropylamino)-6,6-difluoro-1,2-dioxoheptan-3-yl)carbamoyl)-2-azaspiro[4.5]decan-2-yl)-3,3-dimethyl-1-oxobutan-2-yl)carbamate]", "IC50": 60}, {"smiles": "CNC(=O)C(=O)[C@H](CCC(C)(F)F)NC(=O)C1CC2(CCC2)CN1C(=O)[C@@H](NC(=O)OC)C(C)(C)C", "note": "(single isomer, unassigned) [Example 44, Methyl ((S)-1-((R or S)-7-(((S)-6,6-difluoro-1-(methylamino)-1,2-dioxoheptan-3-yl)carbamoyl)-6-azaspiro[3.4]octan-6-yl)-3,3-dimethyl-1-oxobutan-2-yl)carbamate]", "IC50": 27}, {"smiles": "COC(=O)N[C@H](C(=O)N1CC(F)(F)CC[C@H]1C(=O)N[C@@H](CCC(C)(F)F)C(=O)C(=O)NC1CC1)C(C)(C)C", "note": "[Example 104, methyl ((S)-1-((S)-2-(((S)-1-(cyclopropylamino)-6,6-difluoro-1,2-dioxoheptan-3-yl)carbamoyl)-5,5-difluoropiperidin-1-yl)-3,3-dimethyl-1-oxobutan-2-yl)carbamate]", "IC50": 740}, {"smiles": "CNC(=O)C(=O)[C@H](CCC(C)(F)F)NC(=O)[C@@H]1[C@H]2CCC[C@H]2CN1C(=O)C(NC(=O)OC)C1CC(F)(F)C1", "note": "(single isomer, unassigned) [Example 116, methyl ((S or R)-2-((1S,3aR,6aS)-1-(((S)-6,6-difluoro-1-(methylamino)-1,2-dioxoheptan-3-yl)carbamoyl)hexahydrocyclopenta[c]pyrrol-2(1H)-yl)-1-(3,3-difluorocyclobutyl)-2-oxoethyl)carbamate]", "IC50": 16}, {"smiles": "CNC(=O)C(=O)[C@H](CCC(C)(F)F)NC(=O)[C@@H]1CC2(CCN1C(=O)[C@@H](NC(=O)OC)C(C)(C)C)CC2", "note": "[Example 21, Methyl ((S)-1-((S)-5-(((S)-6,6-difluoro-1-(methylamino)-1,2-dioxoheptan-3-yl)carbamoyl)-6-azaspiro[2.5]octan-6-yl)-3,3-dimethyl-1-oxobutan-2-yl)carbamate]", "IC50": 6.5}, {"smiles": "COC(=O)N[C@H](C(=O)N1CC2(CCCCC2)C[C@H]1C(=O)N[C@@H](CCC(C)(F)F)C(=O)C(=O)NCCN1CCOCC1)C(C)(C)C", "note": "[Example 17, Methyl ((S)-1-((S)-3-(((S)-6,6-difluoro-1-((2-morpholinoethyl)amino)-1,2-dioxoheptan-3-yl)carbamoyl)-2-azaspiro[4.5]decan-2-yl)-3,3-dimethyl-1-oxobutan-2-yl)carbamate]", "IC50": 137}, {"smiles": "CNC(=O)C(=O)[C@H](CCC(C)(F)F)NC(=O)C1CCCC(C)N1C(=O)[C@@H](NC(=O)OC)C(C)(C)C", "note": "(single isomer, unassigned) [Example 110, methyl ((S)-1-((2S,6S or 2R,6R)-2-(((S)-6,6-difluoro-1-(methylamino)-1,2-dioxoheptan-3-yl)carbamoyl)-6-methylpiperidin-1-yl)-3,3-dimethyl-1-oxobutan-2-yl)carbamate]", "IC50": 61}, {"smiles": "COC(=O)N[C@H](C(=O)N1CC2(CCCCC2)C[C@H]1C(=O)N[C@@H](CCC(C)(F)F)C(=O)C(=O)NC1CC1)C1CCOCC1", "note": "[Example 74, Methyl ((S)-2-((S)-3-(((S)-1-(cyclopropylamino)-6,6-difluoro-1,2-dioxoheptan-3-yl)carbamoyl)-2-azaspiro[4.5]decan-2-yl)-2-ox0-1-(tetrahydro-2H-pyran-4-yl)ethyl)carbamate]", "IC50": 69}, {"smiles": "CNC(=O)C(=O)[C@H](CCC(C)(F)F)NC(=O)[C@@H]1C[C@@H](C(F)(F)F)CN1C(=O)[C@@H](NC(=O)OC)C(C)(C)C", "note": "[Example 27, Methyl ((S)-1-((2S,4R)-2-(((S)-6,6-difluoro-1-(methylamino)-1,2-dioxoheptan-3-yl)carbamoyl)-4-(trifluoromethyl)pyrrolidin-1-yl)-3,3-dimethyl-1-oxobutan-2-yl)carbamate]", "IC50": 14}, {"smiles": "[2H]C([2H])([2H])NC(=O)C(=O)[C@H](CCC(C)(F)F)NC(=O)C1CC(C(F)(F)F)CCN1C(=O)[C@@H](NC(=O)OC([2H])([2H])[2H])C(C)(C)C", "note": "(single isomer, unassigned) [Example 100, methyl-d3 ((S)-1-((2(S or R),4(S or R))-2-(((S)-6,6-difluoro-1-((methyl-d3)amino)-1,2-dioxoheptan-3-yl)carbamoyl)-4-(trifluoromethyl)piperidin-1-yl)-3,3-dimethyl-1-oxobutan-2-yl)carbamate]", "IC50": 14}, {"smiles": "CNC(=O)C(=O)[C@H](CCC(C)(F)F)NC(=O)[C@@H]1CC2(CN1C(=O)[C@@H](NC(=O)OC)C(C)(C)C)CC(F)(F)C2", "note": "[Example 53, Methyl ((S)-1-((S)-7-(((S)-6,6-difluoro-1-(methylamino)-1,2-dioxoheptan-3-yl)carbamoyl)-2,2-difluoro-6-azaspiro[3.4]octan-6-yl)-3,3-dimethyl-1-oxobutan-2-yl)carbamate]", "IC50": 196}, {"smiles": "COC(=O)N[C@H](C(=O)N1C[C@H]2CCCC[C@H]2C[C@H]1C(=O)N[C@@H](CCC(C)(F)F)C(=O)C(=O)NC1CC1)C(C)(C)C", "note": "[Example 80, methyl ((S)-1-((3S,4aS,8aS)-3-(((S)-1-(cyclopropylamino)-6,6-difluoro-1,2-dioxoheptan-3-yl)carbamoyl)octahydroisoquinolin-2(1H)-yl)-3,3-dimethyl-1-oxobutan-2-yl)carbamate]", "IC50": 12}, {"smiles": "COC(=O)N[C@H](C(=O)N1CC2CCC(C1C(=O)N[C@@H](CCC(C)(F)F)C(=O)C(=O)NC1CC1)C2(F)F)C(C)(C)C", "note": "(single isomer, unassigned) [Example 99, methyl ((S)-1-((1(S or R),2(S or R),5(R or S))-2-(((S)-1-(cyclopropylamino)-6,6-difluoro-1,2-dioxoheptan-3-yl)carbamoyl)-8,8-difluoro-3-azabicyclo[3.2.1]octan-3-yl)-3,3-dimethyl-1-oxobutan-2-yl)carbamate]", "IC50": 100}, {"smiles": "CNC(=O)C(=O)[C@H](CCC(C)(F)F)NC(=O)[C@@H]1[C@H]2CCC[C@H]2CN1C(=O)[C@@H](NC(=O)OC)C(C)(C)O", "note": "[Example 117, methyl ((S)-1-((1S,3aR,6aS)-1-(((S)-6,6-difluoro-1-(methylamino)-1,2-dioxoheptan-3-yl)carbamoyl)hexahydrocyclopenta[c]pyrrol-2(1H)-yl)-3-hydroxy-3-methyl-1-oxobutan-2-yl)carbamate]", "IC50": 14}, {"smiles": "CNC(=O)C(=O)[C@H](CCC(C)(F)F)NC(=O)[C@@H]1CC2(CN1C(=O)[C@@H](NC(=O)OC)C(C)(C)C)CC2(F)F", "note": "(single isomer, unassigned) [Example 93, methyl ((S)-1-((3(S or R),6S)-6-(((S)-6,6-difluoro-1-(methylamino)-1,2-dioxoheptan-3-yl)carbamoyl)-1,1-difluoro-5-azaspiro[2.4]heptan-5-yl)-3,3-dimethyl-1-oxobutan-2-yl)carbamate]", "IC50": 28}, {"smiles": "COC(=O)N[C@H](C(=O)N1C[C@H]2[C@@H](C1C(=O)N[C@@H](CCC(C)(F)F)C(=O)C(=O)NC1CC1)C2(Cl)Cl)C(C)(C)C", "note": "(single isomer, unassigned) [Example 106, methyl ((S)-1-((1S,2(S or R),5R)-6,6-dichloro-2-(((S)-1-(cyclopropylamino)-6,6-difluoro-1,2-dioxoheptan-3-yl)carbamoyl)-3-azabicyclo[3.1.0]hexan-3-yl)-3,3-dimethyl-1-oxobutan-2-yl)carbamate]", "IC50": 8}]}]}
